Laboratory results reported in patent publication US20070142378A1, “Method of treating restless legs syndrome and/or periodic limb movement disorder with (2s,3s) 2-(3-chlorophenyl)-3,5,5-trimethyl-2-morpholinol” (Smith Kline Beecham Corporation, priority 2003, published 2007).
pIC50: −log10 of the molar value. Structures can show the parent of a compound that is named as a salt.

How the values were obtained:
[1] = molecular target: T1, noradrenaline (NA) uptake, synaptosomes from rat hypothalamus (Rattus norvegicus, UniProt Q63380); assay: In vitro synaptosomal uptake of [3H]-NA; type: biochemical
T1 construct: Synaptosomes for use in obtaining in vitro uptake data were prepared from hypothalamus or striatum by gently homogenizing the tissue; from tissue; host or cells: rat hypothalamus synaptosomes (1100 x g supernatant)
T1 sequence (Q63380 1-617): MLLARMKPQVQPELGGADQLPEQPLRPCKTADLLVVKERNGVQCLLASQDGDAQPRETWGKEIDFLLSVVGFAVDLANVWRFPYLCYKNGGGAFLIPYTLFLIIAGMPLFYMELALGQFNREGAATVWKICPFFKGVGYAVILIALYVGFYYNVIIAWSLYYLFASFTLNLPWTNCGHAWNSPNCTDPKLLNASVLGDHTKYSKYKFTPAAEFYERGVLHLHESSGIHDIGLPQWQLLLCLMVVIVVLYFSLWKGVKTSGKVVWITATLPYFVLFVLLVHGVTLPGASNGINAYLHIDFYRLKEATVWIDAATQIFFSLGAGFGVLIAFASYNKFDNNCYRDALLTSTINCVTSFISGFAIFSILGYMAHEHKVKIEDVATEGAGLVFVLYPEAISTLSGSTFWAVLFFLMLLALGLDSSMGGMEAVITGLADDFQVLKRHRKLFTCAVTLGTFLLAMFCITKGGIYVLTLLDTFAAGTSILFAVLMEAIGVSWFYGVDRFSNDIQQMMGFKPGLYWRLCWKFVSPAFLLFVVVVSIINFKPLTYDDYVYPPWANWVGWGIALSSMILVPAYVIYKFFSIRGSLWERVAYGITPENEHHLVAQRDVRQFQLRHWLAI
Method: In vitro uptake was determined, as reported previously, using synaptosomes prepared from rat caudoputamen (for dopamine uptake) and hypothalamus (for NA and serotonin uptake) using [^3H]-dopamine, [^3H]-NA and [^3H]-serotonin as transport substrates, respectively. See Eckhardt, S. B., R. A. Maxwell, and R. M. Ferris, A Structure-Activity Study of the Transport Sites for the Hypothalamic and Striatal Catecholamine Uptake Systems. Similarities and differences. Molecular Pharmacology, 21: p. 374-9,1982
Synaptosomes for use in obtaining in vitro uptake data were prepared from hypothalamus or striatum by gently homogenizing the tissue in a 0.3 M sucrose/25 mM Tris pH 7.4 buffer containing iproniazid phosphate to inhibit monoamine oxidase. The homogenate was centrifuged at 1100×g at 4° C. for 10 min and the supernatant was used for uptake studies. […] Under these conditions uptake was linear with respect to both for substrate and tissue (with <5% total substrate transported). Non-specific uptake was defined as uptake at 0° C. [^3H]-substrate, which had been transported into synaptosomes, was separated from free [^3H]-substrate by filtration over GF/B filters and washing with cold Krebs-Henseleit buffer. The filters were counted for tritum in a liquid scintillation spectrometer.

[2] = molecular target: T2, serotonin uptake, synaptosomes from rat hypothalamus (Rattus norvegicus, UniProt P31652); assay: In vitro synaptosomal uptake of [3H]-serotonin; type: biochemical; conditions: at 30 μM
T2 construct: Synaptosomes for use in obtaining in vitro uptake data were prepared from hypothalamus or striatum by gently homogenizing the tissue; from tissue; host or cells: rat hypothalamus synaptosomes
T2 sequence (P31652 whole entry): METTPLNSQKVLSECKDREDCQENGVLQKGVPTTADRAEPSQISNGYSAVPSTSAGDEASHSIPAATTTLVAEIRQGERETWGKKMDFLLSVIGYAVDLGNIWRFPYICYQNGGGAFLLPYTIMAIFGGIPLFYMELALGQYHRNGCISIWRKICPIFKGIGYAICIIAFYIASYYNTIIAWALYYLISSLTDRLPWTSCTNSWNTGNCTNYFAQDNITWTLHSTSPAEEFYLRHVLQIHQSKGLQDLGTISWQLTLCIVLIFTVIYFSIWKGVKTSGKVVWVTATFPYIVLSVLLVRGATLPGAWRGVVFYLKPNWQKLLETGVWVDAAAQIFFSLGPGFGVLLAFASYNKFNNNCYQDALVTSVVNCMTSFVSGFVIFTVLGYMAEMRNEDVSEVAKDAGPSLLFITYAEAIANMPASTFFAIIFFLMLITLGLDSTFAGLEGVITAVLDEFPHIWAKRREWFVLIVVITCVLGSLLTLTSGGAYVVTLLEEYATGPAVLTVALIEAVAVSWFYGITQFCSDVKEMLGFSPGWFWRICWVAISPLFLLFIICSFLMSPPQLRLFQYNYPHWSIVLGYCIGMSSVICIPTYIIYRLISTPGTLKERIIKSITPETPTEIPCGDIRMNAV
Excerpt: Similarities and differences. Molecular Pharmacology, 21: p.

[3] = molecular target: T3, dopamine transporter (DAT) (Homo sapiens, UniProt Q01959); assay: Dopamine transporter (DAT) receptor occupancy study, PET with 11C-βCIT-FE; type: in vivo; conditions: for DAT receptor occupancy: Part A, healthy male volunteers, PET 2.5 hours after initiation of dosing; for average DAT receptor occupancy: Part B, 60 mg modified release oral once daily for 6 days
T3 construct: from tissue; host or cells: striatum of healthy male volunteers, in vivo PET with 11C-βCIT-FE
T3 sequence (Q01959 whole entry): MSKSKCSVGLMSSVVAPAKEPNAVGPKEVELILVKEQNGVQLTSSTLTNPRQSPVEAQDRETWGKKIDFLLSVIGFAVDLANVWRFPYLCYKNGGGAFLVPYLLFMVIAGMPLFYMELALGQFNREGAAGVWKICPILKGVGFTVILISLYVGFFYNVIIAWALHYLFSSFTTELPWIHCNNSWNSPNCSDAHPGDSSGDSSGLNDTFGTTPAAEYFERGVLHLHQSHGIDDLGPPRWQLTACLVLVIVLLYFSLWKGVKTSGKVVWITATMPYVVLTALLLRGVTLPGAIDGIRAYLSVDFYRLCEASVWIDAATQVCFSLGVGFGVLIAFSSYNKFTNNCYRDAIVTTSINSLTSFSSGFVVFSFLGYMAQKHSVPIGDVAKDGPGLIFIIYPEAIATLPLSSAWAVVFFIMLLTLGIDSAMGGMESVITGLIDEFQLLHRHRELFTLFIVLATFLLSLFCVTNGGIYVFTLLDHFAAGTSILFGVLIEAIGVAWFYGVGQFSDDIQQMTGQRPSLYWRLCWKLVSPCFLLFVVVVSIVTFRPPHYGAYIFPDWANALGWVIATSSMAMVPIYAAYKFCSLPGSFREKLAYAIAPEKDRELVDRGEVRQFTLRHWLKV
Method: The study was conducted in two parts. Part A utilized positron emission tomography (PET) to characterize the concentration-percent occupancy relationship with respect to the dopamine transporter (DAT) after dosing with intravenous compound of formula (I) to pseudo-steady-state. Part B utilized PET to evaluate the time course of occupancy at the dopamine transporter following steady-state dosing of the compound of formula (I) via a modified release oral formulation. The tracer used in this study to assess the occupancy at the DAT was ^11C-βCIT-FE.
Part A. Six healthy male volunteers each received a 20.6 mg intravenous dose of the compound of formula (I) administered via a 2-hour loading infusion followed by a 2-hour maintenance infusion to achieve pseudo-steady-state. Each subject then received two additional doses (61.8 mg and 91.2 mg) of the compound of formula (I), with each dose separated by 3 weeks. A baseline PET scan was performed between 1 and 7 days prior to first dosing with formula (I), and then each post-dose PET scan performed 2.5 hours after the initiation of each of the three dosing regimens.
The concentrate solution for infusion was formulated to contain 10 mg free base equivalent per mL as the hydrochloride salt of the compound of formula (I), and consisted of a clear, colorless solution, pH adjusted to approximately 4.5, buffered with 50 mmol citrate buffer. The product was diluted to a total volume of 250 mL with 0.9% weight-to-volume ratio (w/v) sodium chloride injection prior to being administered.
Part B. Six healthy male volunteers received 60 mg of the compound of formula (I) via a modified release oral formulation once daily for 6 days in order to achieve steady-state by the last day. Four ^11C-βCIT-FE PET scans were performed for each subject, the first between 1 and 7 days prior to dosing and the remaining three at 6, 12 and 24 hours following the final dose on Day 6. The oral formulations were uncoated tablets, containing 20 mg and 40 mg of the compound of formula (I) as the hydrochloride salt details of the formulations are set out below as Examples 6 and 7 (prepared by an analogous method to Examples 1 to 5 above).

[4] = tested on: cell-lines expressing human monoamine transporters; assay: Compound-induced cytotoxicity in the transporter-expressing cells; type: cell-based; conditions: at any of the concentrations causing reuptake inhibition

Compound | pIC50 [1] | inhibition of serotonin uptake [2] | DAT receptor occupancy ([3]; 20.6 mg intravenous) [%] | DAT receptor occupancy ([3]; 61.8 mg intravenous) [%] | DAT receptor occupancy ([3]; 91.2 mg intravenous) [%] | average DAT receptor occupancy ([3]; 6 hours after the last dose) [%] | average DAT receptor occupancy ([3]; during the following 6 hours (12 hour scan)) [%] | cytotoxicity [4]
C[C@@H]1NC(C)(C)CO[C@@]1(O)c1cccc(Cl)c1 [Formula (I), (+)-(2S,3S)-2-(3-chlorophenyl)-3,5,5-trimethyl-2-morpholinol] | 5.96 | no inhibition | 14±0.38 | 37±8.0 | 47±6.8 | 29±5.3 | 27±11.3 | –
C[C@@H]1NC(C)(C)CO[C@@]1(O)c1cccc(Cl)c1 [Formula (I).HCl, (+)-(2S, 3S)2-(3-chlorophenyl)-3,5,5-trimethyl-2-morpholinol hydrochloride] | – | – | – | – | – | – | – | No cytotoxicity was observed
